Measurements reported in BigSolDB 2.1.

**Q.** Which solubility (mole fraction) (in NMP, 298.2 K) does the source give for O=C1CN=C(c2ccccc2Cl)c2cc([N+](=O)[O-])ccc2N1 here?
**A.** Its solubility (mole fraction) is 0.0132.

**Q.** What about the solubility (mole fraction) (in NMP, 303.2 K) of the same compound?
**A.** The solubility (mole fraction) was 0.0142.

**Q.** And the solubility (mole fraction) (in NMP, 308.2 K)?
**A.** The solubility (mole fraction) was 0.0187.

**Q.** What about the solubility (mole fraction) (in NMP, 313.2 K) of the same compound?
**A.** The solubility (mole fraction) was 0.0207.

**Q.** And the solubility (mole fraction) (in NMP, 318.2 K)?
**A.** The solubility (mole fraction) was 0.0222.

**Q.** And the solubility (mole fraction) (in PEG-200, 298.2 K)?
**A.** The solubility (mole fraction) was 0.01.

**Q.** What about the solubility (mole fraction) (in PEG-200, 303.2 K) of the same compound?
**A.** Its solubility (mole fraction) is 0.01.

**Q.** What about the solubility (mole fraction) (in PEG-200, 308.2 K) of the same compound?
**A.** Its solubility (mole fraction) is 0.0134.

**Q.** What about the solubility (mole fraction) (in PEG-200, 313.2 K) of the same compound?
**A.** Its solubility (mole fraction) is 0.0168.

**Q.** And the solubility (mole fraction) (in PEG-200, 318.2 K)?
**A.** The solubility (mole fraction) was 0.0239.

**Q.** What about the solubility (mole fraction) (in ethanol, 298.2 K) of the same compound?
**A.** The solubility (mole fraction) was 0.000348.

**Q.** What about the solubility (mole fraction) (in ethanol, 303.2 K) of the same compound?
**A.** Its solubility (mole fraction) is 0.000409.

**Q.** What about the solubility (mole fraction) (in ethanol, 308.2 K) of the same compound?
**A.** Its solubility (mole fraction) is 0.000533.

**Q.** What about the solubility (mole fraction) (in ethanol, 313.2 K) of the same compound?
**A.** The solubility (mole fraction) was 0.00058.

**Q.** And the solubility (mole fraction) (in ethanol, 318.2 K)?
**A.** The solubility (mole fraction) was 0.000652.

**Q.** What about the solubility (mole fraction) (in propylene glycol, 298.2 K) of the same compound?
**A.** Its solubility (mole fraction) is 0.000641.

**Q.** And the solubility (mole fraction) (in propylene glycol, 303.2 K)?
**A.** Its solubility (mole fraction) is 0.00104.

**Q.** What about the solubility (mole fraction) (in propylene glycol, 308.2 K) of the same compound?
**A.** Its solubility (mole fraction) is 0.00108.

**Q.** What about the solubility (mole fraction) (in propylene glycol, 313.2 K) of the same compound?
**A.** Its solubility (mole fraction) is 0.00116.

**Q.** What about the solubility (mole fraction) (in propylene glycol, 318.2 K) of the same compound?
**A.** Its solubility (mole fraction) is 0.00138.

**Q.** What about the solubility (mole fraction) (in water, 298.2 K) of the same compound?
**A.** The solubility (mole fraction) was 1.9e-07.

**Q.** What about the solubility (mole fraction) (in water, 303.2 K) of the same compound?
**A.** Its solubility (mole fraction) is 2.4e-07.

**Q.** What about the solubility (mole fraction) (in water, 308.2 K) of the same compound?
**A.** Its solubility (mole fraction) is 2.6e-07.

**Q.** What about the solubility (mole fraction) (in water, 313.2 K) of the same compound?
**A.** Its solubility (mole fraction) is 2.9e-07.

**Q.** What about the solubility (mole fraction) (in water, 318.2 K) of the same compound?
**A.** The solubility (mole fraction) was 3.2e-07.
